We go through 3 molecules from US20120128628A1, “COMBINATION OF A NUCLEOSIDE POLYMERASE INHIBITOR WITH A MACROCYCLIC PROTEASE INHIBITOR AND USE THEREOF IN THE TREATMENT OF HEPATITIS C, LIVER FIBROSIS AND IMPAIRED LIVER FUNCTION (as amended)” (priority 2009, published 2012).

One data set has as its system HCV replication. Particulars: cited from earlier work.
The conditions of data set [1]: prodrug compared to Compound 1; cited from earlier work.
Data set [2] has as its system chronic hepatitis C genotype 1. As to the kind of experiment: HCV RNA viral load determination (COBAS AmpilPrep/COBAS Taqman HCV Test RUO) in a dose ranging study in patients. As to conditions: monotherapy 750 mg, bid; after 7 days of treatment. In kind it is in vivo, Hepatitis C virus. As for the experimental part: A randomized, double-blind, placebo controlled, dose ranging study of Compound 1a and Compound 2 in adult patients with chronic hepatitis C genotype 1 was conducted. Approximately 54 treatment naïve males and females between 18 and 65 years of age (inclusive) with genotype 1 HCV infection who had not previously been treated with an interferon or investigational HCV therapeutic agent were enrolled. Approximately an additional 20 treatment patients who had failed treatment with the current standard of care (null, partial responders and relapsers) were enrolled. […] Subjects with liver cirrhosis or incomplete/transition to cirrhosis, or other forms of liver disease, anemia, HIV or HBV infection, hepatocellular carcinoma, cardiac disease or renal disease were excluded from this particular protocol, as well as pregnant or lactating women, women of childbearing potential, and male partners of women who are pregnant or lactating.
Seven groups, Groups I, II, III, IV, V, VI and VII, of subjects were studied. Blood samples were collected at time points to determine pharmacokinetics parameters, including Tmax, Cmax, Kel, T1/2, AUC, CL/F, Vd/F and accumulation ratio.
The specifics of Groups I, II, III, IV, V, VI and VII are shown in Table 1 below and pictorially in FIGS. 2 and 3. Group I included two arms with 8 subjects in Arm 1 and 8 subjects in Arm 2. […]
(In qPCR the cycle at which signal appears reflects the starting amount.)

Regarding `C[C@@]1(F)[C@H](O)[C@@H](CO)O[C@H]1n1ccc(N)nc1=O` [Compound 1, β-D-2′-deoxy-2′-fluoro-2′-C-methylcytidine], the “inhibiting HCV replication” value in the data set on HCV replication is “effective in inhibiting HCV replication”.
With `CC(C)(C)OC(=O)N[C@H]1CCCCCC=C[C@@H]2C[C@@]2(C(=O)NS(=O)(=O)C2CC2)NC(=O)[C@@H]2C[C@@H](OC(=O)N3Cc4cccc(F)c4C3)CN2C1=O` [Compound 2, (1S,4R,6S,14S,18R)-4-Fluoro-1,3-dihydro-isoindole-2-carboxylic acid 14-tert-butoxycarbonylamino-4-cyclopropanesulfonylaminocarbonyl-2,15-dioxo-3,16-diaza-tricyclo[14.3.0.04,6]nonadec-7-en-18-yl ester], the “inhibiting HCV replication” value with HCV replication is reported as “effective in inhibiting HCV replication”.
With “diisobutyl ester prodrug of β-D-2′-deoxy-2′-fluoro-2′-C-methylcytidine [Compound 1a]”, in data set [1], the permeability entry is “increased permeability” and the plasma exposure result is “increased plasma exposure”. For the same molecule, the “mean log change from baseline of HCV RNA viral load” value in data set [2] is −1.3 log10 IU/mL. Also, the anti-viral efficacy result in the data set with HCV replication (prodrug compared to Compound 1) is given as “improved anti-viral efficacy”.
